Measurements as given in patent US20260028354A1, “TETRAHYDRONAPHTHALENE DERIVATIVES AS ESTROGEN RECEPTOR DEGRADERS” (REGENT OF THE UNIVERSITY OF MICHIGAN, priority 2022, published 2026).
Structures can show the parent of a compound that is named as a salt. Where two headings read alike, the source gives them in different places.

What was measured:
Type in all cases: cell-based
[1] = Western blot analysis for "B" compounds; settings: read-out: Traditional Western Degradation Potency (DC50)
Experimental: Western Blot Analysis. Western blot analysis was performed essentially as described previously. The cells treated with indicated compounds were lysed in Radioimmunoprecipitation Assay Protein Lysis and Extraction Buffer (25 mmol/I. Tris.HCl, pH 7.6, 150 mmol/L, NaCl, 1% Nonidet P-40, 1% sodium deoxycholate, and 0.1% sodium dodecyl sulfate) containing proteinase inhibitor cocktail (Roche Diagnostics, Mannheim, Germany). Equal amounts of total protein were electrophoresed through 10% SDS-polyacrylamide gels after determination of protein concentration by BCA assay (Fisher Scientific, Pittsburgh, PA), The separated protein bands were transferred onto PVDF membranes (GE Healthcare Life Sciences, Marlborough, MA) and blotted against different antibodies, as indicated. The blots were scanned, and the band intensities were quantified using GelQuant.NET software provided by biochemlabsolutions.com. The relative mean intensity of target proteins was expressed after normalization to the intensity of glyceraldehyde-3-phosphate dehydrogenase bands.

ER in MCF-7 cells = ER in MCF-7 cells (Homo sapiens (Human), UniProt P03372); test: In-cell Western (ICW) ER degradation assay in MCF-7 cells; settings: for DC50: MCF-7, ER degradation, read-out: MCF7 DC50
ER in MCF-7 cells, sequence (P03372 whole entry): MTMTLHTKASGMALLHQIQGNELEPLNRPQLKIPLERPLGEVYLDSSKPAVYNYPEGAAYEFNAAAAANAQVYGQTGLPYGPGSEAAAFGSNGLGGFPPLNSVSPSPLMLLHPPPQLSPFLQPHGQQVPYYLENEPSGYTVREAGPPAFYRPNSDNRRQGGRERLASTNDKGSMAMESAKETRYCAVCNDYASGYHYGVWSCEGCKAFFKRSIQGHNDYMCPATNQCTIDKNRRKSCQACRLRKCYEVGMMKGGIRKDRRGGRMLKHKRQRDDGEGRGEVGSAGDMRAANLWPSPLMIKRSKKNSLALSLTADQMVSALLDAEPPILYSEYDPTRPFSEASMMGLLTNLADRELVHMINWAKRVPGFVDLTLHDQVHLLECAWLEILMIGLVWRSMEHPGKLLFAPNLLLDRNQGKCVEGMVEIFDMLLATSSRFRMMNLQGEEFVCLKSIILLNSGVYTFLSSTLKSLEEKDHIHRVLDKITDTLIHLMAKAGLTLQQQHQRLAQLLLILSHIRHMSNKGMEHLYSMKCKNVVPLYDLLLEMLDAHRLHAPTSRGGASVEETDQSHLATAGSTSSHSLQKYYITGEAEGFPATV
Text: (§1) In-cell Western (ICW) assays in MCF-7 and T47D cell lines.
(§2) Day 3: After 16 hrs of compounds treatment, cells were fixed by 4% PFA and permeabilized with elution buffer (0.1% Triton X-100 in 1% PBS Solution). Subsequently, cells were blocked with Intercept (PBS) Blocking Buffer (Li-COR, Odyssey Blocking Buffer), and were stained with ER (1:500, Cell signaling) primary antibody for overnight at cold room.
(§3) Day 4: Remove the buffer, add IRDye 800CW Goat anti-Rabbit IgG Secondary Antibody (1:2000) and CellTag 700 Stain (1:500) in Intercept (PBS) Blocking Buffer. Finally, cell plate is placed in incubator to dry. Image and signal were captured on Odyssey® DLx Imaging System.

ER in T47D cells = ER in T47D cells (Homo sapiens (Human), UniProt P03372); test: In-cell Western (ICW) ER degradation assay in T47D cells; settings: for DC50: ER degradation
ER in T47D cells, sequence (P03372 whole entry): as above
Text: as §1, §2, §3

[2] = MCF7, MCF-7, maximal ER degradation, 16 hrs treatment, read-out: MCF7 Dmax
[3] = maximal ER degradation, 16 hrs treatment, read-out: T47D Dmax

Row | DC50 [1] [nM] | DC50 (ER in MCF-7 cells; 16 hrs treatment) [nM] | DC50 (ER in T47D cells; 16 hrs treatment) [nM] | SMILES | also measured
1 | 10 to 100 | – | – | O=C1CCC(N2C(=O)c3cc4c(cc3C2=O)CN(CC(=O)N2CCC(N3CC(Oc5ccc([C@@H]6c7ccc(O)cc7CC[C@@H]6c6ccccc6)cc5)C3)CC2)C4)C(=O)N1 (stereo partly drawn) [Compound B121, 2-(2,6-dioxopiperidin-3-yl)-6-(2-(4-(3-(4-((1R,2S)-6-hydroxy-2-phenyl-1,2,3,4-tetrahydronaphthalen-1-yl)phenoxy)azetidin-1-yl)piperidin-1-yl)-2-oxoethyl)-6,7-dihydropyrrolo[3,4-f]isoindole-1,3(2H,5H)-dione] | –
2 | 10 to 100 | – | – | O=C1CCC(N2C(=O)c3cc4c(cc3C2=O)CN(CC(=O)N2CC3(C2)CN(c2ccc([C@@H]5c6ccc(O)cc6CC[C@@H]5c5ccccc5)cc2)C3)C4)C(=O)N1 (mixture of isomers) [Compound B4, 2-(2,6-dioxopiperidin-3-yl)-6-(2-(6-(4-((1R,2S)-6-hydroxy-2-phenyl-1,2,3,4-tetrahydronaphthalen-1-yl)phenyl)-2,6-diazaspiro[3.3]heptan-2-yl)-2-oxoethyl)-6,7-dihydropyrrolo[3,4-f]isoindole-1,3(2H,5H)-dione] | –
3 | > 100 | – | – | O=C1CCC(N2C(=O)c3cc4c(cc3C2=O)CC2(C4)CN(CC(=O)N3CC(Oc4ccc([C@@H]5c6ccc(O)cc6CC[C@@H]5c5ccccc5)cc4)C3)C2)C(=O)N1 (stereo partly drawn) [Compound B300, 2′-(2,6-dioxopiperidin-3-yl)-1-(2-(3-(4-((1R,2S)-6-hydroxy-2-phenyl-1,2,3,4-tetrahydronaphthalen-1-yl)phenoxy)azetidin-1-yl)-2-oxoethyl)-5′,7′-dihydro-1'H-spiro[azetidine-3,6′-cyclopenta[f]isoindole]-1′,3′(2′H)-dione] | –
4 | > 100 | – | – | O=C1CCC(N2C(=O)c3cc4c(cc3C2=O)CN(CC(=O)N2CCC3(CC2)CCN(c2ccc([C@@H]5c6ccc(-c7cn[nH]c7)cc6CC[C@@H]5c5ccccc5)cc2)CC3)C4)C(=O)N1 (stereo partly drawn) [Compound B324, 2-(2,6-dioxopiperidin-3-yl)-6-(2-oxo-2-(9-(4-((1R,2S)-2-phenyl-6-(1H-pyrazol-4-yl)-1,2,3,4-tetrahydronaphthalen-1-yl)phenyl)-3,9-diazaspiro[5.5]undecan-3-yl)ethyl)-6,7-dihydropyrrolo[3,4-f]isoindole-1,3(2H,5H)-dione] | –
5 | > 100 | – | – | O=C1CCC(N2C(=O)c3cc4c(cc3C2=O)CN(C(=O)CN2CC3(CCN(c5ccc([C@@H]6c7ccc(O)cc7CC[C@@H]6c6ccccc6)cc5)CC3)C2)CCC4)C(=O)N1 (mixture of isomers) [Compound B260, 2-(2,6-dioxopiperidin-3-yl)-6-(2-(7-(4-((1R,2S)-6-hydroxy-2-phenyl-1,2,3,4-tetrahydronaphthalen-1-yl)phenyl)-2,7-diazaspiro[3.5]nonan-2-yl)acetyl)-6,7,8,9-tetrahydroazepino[3,4-f]isoindole-1,3(2H,5H)-dione] | –
6 | > 100 | – | – | O=C1CCC(N2C(=O)c3cc4c(cc3C2=O)CCN(C(=O)CN2CC3(CCN(c5ccc([C@@H]6c7ccc(O)cc7CC[C@@H]6c6ccccc6)cc5)CC3)C2)CC4)C(=O)N1 (stereo partly drawn) [Compound B42, 2-(2,6-dioxopiperidin-3-yl)-7-(2-(7-(4-((1R,2S)-6-hydroxy-2-phenyl-1,2,3,4-tetrahydronaphthalen-1-yl)phenyl)-2,7-diazaspiro[3.5]nonan-2-yl)acetyl)-6,7,8,9-tetrahydroazepino[4,5-f]isoindole-1,3(2H,5H)-dione] | –
7 | 10 to 100 | – | – | O=C1CCC(N2C(=O)c3cc4c(cc3C2=O)CN(CC(=O)N2CCC3(CC2)CCN(c2ccc([C@@H]5c6ccc(O)cc6CC[C@@H]5c5ccc(F)cc5)cc2)CC3)C4)C(=O)N1 (stereo partly drawn) [Compound B272, 2-(2,6-dioxopiperidin-3-yl)-6-(2-(9-(4-((1R,2S)-2-(4-fluorophenyl)-6-hydroxy-1,2,3,4-tetrahydronaphthalen-1-yl)phenyl)-3,9-diazaspiro[5.5]undecan-3-yl)-2-oxoethyl)-6,7-dihydropyrrolo[3,4-f]isoindole-1,3(2H,5H)-dione] | –
8 | > 100 | – | – | O=C1CCC(N2Cc3c(ccc4c3OC[C@H]3CN(C(=O)C5CCN(c6ccc([C@@H]7c8ccc(O)cc8CC[C@@H]7c7ccccc7)cc6)CC5)CCN43)C2=O)C(=O)N1 (stereo partly drawn) [Compound B295, 3-((R)-7-(1-(4-((1R,2S)-6-hydroxy-2-phenyl-1,2,3,4-tetrahydronaphthalen-1-yl)phenyl)piperidine-4-carbonyl)-1-oxo-1,3,5,5a,6,7,8,9-octahydro-2H-pyrazino[1′,2′:4,5][1,4]oxazino[2,3-e]isoindol-2-yl)piperidine-2,6-dione] | –
9 | > 100 | – | – | O=C1CCC(N2Cc3cc4c(cc3C2=O)CN(C(=O)C2CCN(CC3CN(c5ccc([C@@H]6c7ccc(O)cc7CC[C@@H]6c6ccccc6)cc5)C3)CC2)C4)C(=O)N1 (stereo partly drawn) [Compound B80, 3-(6-(1-((1-(4-((1R,2S)-6-hydroxy-2-phenyl-1,2,3,4-tetrahydronaphthalen-1-yl)phenyl)azetidin-3-yl)methyl)piperidine-4-carbonyl)-1-oxo-3,5,6,7-tetrahydropyrrolo[3,4-f]isoindol-2(1H)-yl)piperidine-2,6-dione] | –
10 | – | < 1 | < 1 | COc1cc(N2CCC3(CC2)CC(CN2CCC(c4ccc(N[C@@H]5CCC(=O)NC5=O)cc4)CC2)C3)ccc1[C@@H]1c2ccc(O)cc2CC[C@@H]1c1ccccc1 (single isomer, unassigned) [Compound A110] | Dmax (ER in MCF-7 cells; [2]): 50 to 75%; Dmax (ER in T47D cells; [3]): 50 to 75%
11 | – | < 1 | 1 to 10 | COc1cc(N2CCC3(CC2)CC(CN2CCC(c4ccc(N[C@H]5CCC(=O)NC5=O)cc4F)CC2)C3)ccc1[C@@H]1c2ccc(O)cc2CC[C@@H]1c1ccccc1 (single isomer, unassigned) [Compound A105] | Dmax (ER in MCF-7 cells; [2]): 50 to 75%; Dmax (ER in T47D cells; [3]): 50 to 75%
12 | – | 1 to 10 | 10 to 100 | COc1cc(N2CCC(CN3CCC(c4ccc(N[C@H]5CCC(=O)NC5=O)cc4)CC3)CC2)ccc1[C@@H]1c2ccc(O)cc2CC[C@@H]1c1ccccc1 (single isomer, unassigned) [Compound A86] | Dmax (ER in MCF-7 cells; [2]): < 25%; Dmax (ER in T47D cells; [3]): 25 to 50%
13 | – | < 1 | 1 to 10 | O=C1CC[C@H](N2Cc3c(ccc4c3OC[C@H]3CN(CC5CC6(CCN(c7ccc([C@H]8c9ccc(O)cc9CC[C@H]8c8ccccc8)cc7F)CC6)C5)CCN43)C2=O)C(=O)N1 (single isomer, unassigned) [Compound A147] | Dmax (ER in MCF-7 cells; [2]): > 75%; Dmax (ER in T47D cells; [3]): > 75%
14 | – | < 1 | < 1 | COc1cc(N2CCC(CN3CCC(c4ccc(N[C@@H]5CCC(=O)NC5=O)cc4)CC3)CC2)ccc1[C@@H]1c2ccc(O)cc2CC[C@@H]1c1ccccc1 (single isomer, unassigned) [Compound A87] | Dmax (ER in MCF-7 cells; [2]): 25 to 50%; Dmax (ER in T47D cells; [3]): 25 to 50%

Row | SMILES | DC50 [1] [nM] | DC50 (ER in MCF-7 cells; 16 hrs treatment) [nM] | DC50 (ER in T47D cells; 16 hrs treatment) [nM] | also measured
15 | O=C1CC[C@H](N2Cc3c(ccc4c3OC[C@H]3CN(CC5CCC6(CC5)CN(c5ccc([C@@H]7c8ccc(O)cc8CC[C@@H]7c7ccccc7)cn5)C6)CCN43)C2=O)C(=O)N1 (single isomer, unassigned) [Compound A123, (S)-3-((R)-7-((2-(5-((1S,2S)-6-hydroxy-2-phenyl-1,2,3,4-tetrahydronaphthalen-1-yl)pyridin-2-yl)-2-azaspiro[3.5]nonan-7-yl)methyl)-1-oxo-1,3,5,5a,6,7,8,9-octahydro-2H-pyrazino[1′,2′: 4,5][1,4]oxazino[2,3-e]isoindol-2-yl)piperidine-2,6-dione] | – | < 1 | < 1 | –
16 | O=C1CC[C@H](N2Cc3cc4c(cc3C2=O)OCC42CCN(C[C@@H]3COC4(CCN(c5ccc([C@@H]6c7ccc(O)cc7CC[C@@H]6c6ccccc6)cc5)CC4)C3)CC2)C(=O)N1 [Compound A26, (3S)-3-(1′-((8-(4-((1R,2S)-6-hydroxy-2-phenyl-1,2,3,4-tetrahydronaphthalen-1-yl)-phenyl)-1-oxa-8-azaspiro[4.5]decan-3-yl)methyl)-7-oxo-5,7-dihydro-2H,6H-spiro[furo[2,3-f]isoindole-3,4′-piperidin]-6-yl)piperidine-2,6-dione] | – | 10 to 100 | 10 to 100 | MCF7 Dmax (ER in MCF-7 cells; MCF-7, maximal ER degradation, 16 hrs treatment): C (“C”: 25-50%); T47D Dmax (ER in T47D cells; maximal ER degradation, 16 hrs treatment): C (“C”: 25-50%)
17 | COc1cc(N2CCC(CN3CCC4(CC3)COc3cc5c(cc34)CN([C@H]3CCC(=O)NC3=O)C5=O)CC2)ccc1[C@H]1c2ccc(O)cc2CC[C@H]1c1ccccc1 [Compound A38, (R)-3-(1′-((1-(4-((1S,2S)-6-hydroxy-2-phenyl-1,2,3,4-tetrahydronaphthalen-1-yl)-3-methoxyphenyl)piperidin-4-yl)methyl)-7-oxo-5,7-dihydro-2H,6H-spiro[furo[2,3-f]iso-indole-3,4′-piperidin]-6-yl)-piperidine-2,6-dione formate] | – | 10 to 100 | 1 to 10 | Dmax (ER in MCF-7 cells; MCF7, read-out: MCF7 Dmax, MCF-7, maximal ER degradation, 16 hrs treatment): 25 to 50%; Dmax (ER in T47D cells; read-out: T47D Dmax, T47D, maximal ER degradation, 16 hrs treatment): 25 to 50%
